In patent US6432960B1, “Squarate derivatives of dihydropyridine NPY antagonists” (Bristol-Myers Squibb Company, priority 2000, dated 2002):

Experiments:
[1] = biological target: T1, NPY Y1 receptors (Homo sapiens, UniProt P25929); assay: Binding affinity at NPY Y1 receptors in SK-N-MC cell membranes, iodine-125-labeled I-PYY radioligand; settings: SK-N-MC (human neuroblastoma) cell membranes; 125I-PYY radioligand
T1 construct: assayed in SK-N-MC (human neuroplastoma) cell membranes; endogenous in cells; host or cells: SK-N-MC (human neuroblastoma) cell membranes
T1 sequence (P25929 1-384): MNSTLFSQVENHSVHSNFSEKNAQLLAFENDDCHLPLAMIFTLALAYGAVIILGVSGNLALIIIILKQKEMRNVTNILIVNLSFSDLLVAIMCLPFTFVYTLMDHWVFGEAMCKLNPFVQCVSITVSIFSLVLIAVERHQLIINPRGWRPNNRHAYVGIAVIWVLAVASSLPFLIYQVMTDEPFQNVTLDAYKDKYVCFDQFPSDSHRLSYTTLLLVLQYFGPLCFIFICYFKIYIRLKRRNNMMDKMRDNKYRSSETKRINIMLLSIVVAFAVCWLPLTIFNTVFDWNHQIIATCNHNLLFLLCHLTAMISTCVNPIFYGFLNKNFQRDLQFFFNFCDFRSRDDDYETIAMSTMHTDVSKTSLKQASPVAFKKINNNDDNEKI
Experimental: This pharmacologic activity is assayed in SK-N-MC (human neuroblastoma) cell membranes using iodine-125-labeled I-PYY as a radioligand. […] These types of dihydropyridines have significant affinity for α1-adrenergic receptors and/or Ca^++ channels.
The following examples set forth the process for producing various squarate derivatives of the dihydropyridine. The binding affinities were determined at NPY Y1 receptors. The pharmacologic activity was assayed in SK-N-MC (human neuroblastoma) cell membranes using iodine-125-labeled 1-PYY as ratio ligand. Examples 1 and 2 are directed to the production of the intermediates. Examples 3-6 are directed to the process of producing the squarate derivatives.
The compounds of Examples 1-6 were tested for binding affinity at NPY Y1 receptors. The pharmacologic activity was assayed in SK-N-MC (human neuroplastoma) cell membranes using iodine-125 labeled I-PYY as a radioligand.

Structure (SMILES)	IC50 [1]	melting point
CCOc1c(Nc2cccc(C3C(C(=O)OC)=C(C)NC(C)=C3C(=O)OC)c2)c(=O)c1=O [Example 1, 4-[3-[(2-Ethoxy-3,4-dioxo-1-cyclobuten-1-yl)amino]phenyl]-1,4-dihydro-2,6-dimethyl-3,5-pyridinedicarboxylic Acid, Dimethyl Ester]	> 1 µM	249 to 252 °C
CCOc1c(Nc2cc(C3C(C(=O)OC)=C(C)NC(C)=C3C(=O)OC)ccc2F)c(=O)c1=O [Example 2, 4-[3-[(2-Ethoxy-3,4-dioxo-1cyclobuten-1-yl)amino]-4-fluorophenyl]-1,4-dihydro-2,6-dimethyl-3,5-pyridinedicarboxylic Acid, Dimethyl Ester]	> 1 µM	203 to 205 °C
COC(=O)C1=C(C)NC(C)=C(C(=O)OC)C1c1cccc(Nc2c(NCCCN3CCC(c4cccc(OC)c4)CC3)c(=O)c2=O)c1 [Example 3, 1,4-Dihydro-4-[3-[[2-[[3-[4-(3-methoxyphenyl)-1-piperidinyl]propyl]amino]-3,4-dioxo-1-cyclobuten-1-yl]amino]phenyl]-2,3-dimethyl-3,5-pyridinedicarboxylic Acid, Dimethyl Ester]	0.0246 µM	–
COC(=O)C1=C(C)NC(C)=C(C(=O)OC)C1c1ccc(F)c(Nc2c(NCCCN3CCC(c4cccc(OC)c4)CC3)c(=O)c2=O)c1 [Example 4, 4-[4-Fluoro-3-[[2-[[3-[4-(3-methoxyphenyl)-1-piperidinyl]propyl]amino]-3,4-dioxo-1-cyclobuten-1-yl]amino]phenyl]-1,4-dihydro-2,6-dimethyl-3,5-pyridinedicarboxylic Acid, Dimethyl Ester]	0.0658 µM	205 to 207 °C
COC(=O)C1=C(C)NC(C)=C(C(=O)OC)C1c1cccc(Nc2c(NCCCN3CCN(C4CCCCC4)CC3)c(=O)c2=O)c1 [Example 5, 4-[3-[[2-[[3-(4-cyclohexyl-1-piperazinyl)propyl]amino]-3,4-dioxo-1-cyclobuten-1-yl]amino]phenyl]-1,4-dihydro-2,6-dimethyl-3,5-pyridinedicarboxylic Acid, Dimethyl Ester]	0.14 µM	210 to 212 °C
COC(=O)C1=C(C)NC(C)=C(C(=O)OC)C1c1ccc(F)c(Nc2c(NCCCN3CCN(C4CCCCC4)CC3)c(=O)c2=O)c1 [Example 6, 4-[3-[[2-[[3-(4-cyclohexyl-1-piperazinyl)propyl]amino]-3,4-dioxo-1-cyclobuten-1-yl]amino]-4-fluorophenyl]-1,4-dihydro-2,6-dimethyl-3,5-pyridinedicarboxylic Acid, Dimethyl Ester]	0.95 µM	229 to 230 °C
